From paper PMC10954709, “Structure of an open KATP channel reveals tandem PIP2 binding sites mediating the Kir6.2 and SUR1 regulatory interface” (Nature Communications, 2024)
“And” between values parts separate entries of the source, which are not always exact repeats. Equal values may be shown once.

Assays:
KATP channels = tested on: KATP channels; design: method as in PMID 12525701; conditions: cited from earlier work
[1] = target: T1, SUR1/Kir6.2^R176A channel (UniProt P70673+Q09427, R176A); assay: PIP2 response, inside-out patch-clamp recording, COSm6 cells; format: biochemical, rat Kir6.2, hamster SUR1; conditions: 5 μM PIP2; −50 mV; mean (± SEM)
T1 construct: expressed in transfected cells; host or cells: COSm6
T1 sequence (Q09427 whole entry): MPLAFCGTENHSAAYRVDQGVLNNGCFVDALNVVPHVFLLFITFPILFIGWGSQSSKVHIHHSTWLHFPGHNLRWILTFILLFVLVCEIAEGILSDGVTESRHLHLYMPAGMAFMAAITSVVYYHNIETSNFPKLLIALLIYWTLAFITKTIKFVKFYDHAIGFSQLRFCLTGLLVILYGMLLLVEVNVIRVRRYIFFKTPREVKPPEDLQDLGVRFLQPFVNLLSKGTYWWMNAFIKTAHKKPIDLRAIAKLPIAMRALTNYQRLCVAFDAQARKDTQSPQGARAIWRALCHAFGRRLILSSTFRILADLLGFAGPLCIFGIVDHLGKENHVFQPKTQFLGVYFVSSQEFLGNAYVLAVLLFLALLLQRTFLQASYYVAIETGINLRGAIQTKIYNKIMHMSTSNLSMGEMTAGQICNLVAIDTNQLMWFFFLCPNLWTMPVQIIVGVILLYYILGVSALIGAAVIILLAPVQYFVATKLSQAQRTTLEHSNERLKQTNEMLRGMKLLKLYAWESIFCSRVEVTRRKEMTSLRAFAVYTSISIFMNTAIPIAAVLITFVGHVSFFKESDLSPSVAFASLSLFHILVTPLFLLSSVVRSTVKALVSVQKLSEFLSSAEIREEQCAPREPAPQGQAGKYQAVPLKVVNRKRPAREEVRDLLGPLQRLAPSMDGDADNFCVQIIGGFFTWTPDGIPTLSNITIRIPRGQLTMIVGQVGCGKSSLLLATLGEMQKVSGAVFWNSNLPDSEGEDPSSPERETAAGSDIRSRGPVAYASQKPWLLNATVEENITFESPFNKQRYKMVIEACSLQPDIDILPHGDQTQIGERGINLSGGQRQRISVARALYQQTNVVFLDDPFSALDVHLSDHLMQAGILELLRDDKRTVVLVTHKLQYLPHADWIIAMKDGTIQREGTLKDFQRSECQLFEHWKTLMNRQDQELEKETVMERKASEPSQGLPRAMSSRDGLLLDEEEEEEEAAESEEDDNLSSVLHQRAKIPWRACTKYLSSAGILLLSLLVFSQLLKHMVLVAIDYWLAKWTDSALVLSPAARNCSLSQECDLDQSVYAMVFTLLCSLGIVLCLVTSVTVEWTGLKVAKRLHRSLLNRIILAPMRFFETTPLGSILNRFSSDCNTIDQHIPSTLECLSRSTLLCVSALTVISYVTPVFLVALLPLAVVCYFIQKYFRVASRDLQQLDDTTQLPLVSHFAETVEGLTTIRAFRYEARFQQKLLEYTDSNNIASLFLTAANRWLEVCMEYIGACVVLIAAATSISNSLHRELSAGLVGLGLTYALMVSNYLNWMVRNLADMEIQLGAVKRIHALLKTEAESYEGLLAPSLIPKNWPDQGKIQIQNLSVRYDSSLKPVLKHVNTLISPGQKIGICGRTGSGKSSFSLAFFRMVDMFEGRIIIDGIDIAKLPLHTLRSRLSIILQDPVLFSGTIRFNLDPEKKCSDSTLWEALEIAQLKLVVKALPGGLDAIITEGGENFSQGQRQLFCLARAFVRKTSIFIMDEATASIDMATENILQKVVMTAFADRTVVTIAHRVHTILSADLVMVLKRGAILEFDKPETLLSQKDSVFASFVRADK
T1 sequence (P70673 whole entry R176A): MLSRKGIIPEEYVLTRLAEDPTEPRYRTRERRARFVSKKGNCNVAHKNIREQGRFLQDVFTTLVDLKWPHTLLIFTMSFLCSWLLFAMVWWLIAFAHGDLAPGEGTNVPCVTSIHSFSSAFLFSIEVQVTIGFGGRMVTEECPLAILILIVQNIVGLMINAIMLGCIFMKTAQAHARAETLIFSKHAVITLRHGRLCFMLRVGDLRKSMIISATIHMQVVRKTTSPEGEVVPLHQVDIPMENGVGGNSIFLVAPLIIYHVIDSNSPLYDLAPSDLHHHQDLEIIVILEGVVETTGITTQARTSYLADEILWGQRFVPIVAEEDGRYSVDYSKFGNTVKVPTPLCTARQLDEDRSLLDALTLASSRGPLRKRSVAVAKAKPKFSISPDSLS
Experimental: (§1) Fig. 3 Functional testing of the two PIP2 binding sites. a Representative inside-out patch-clamp recordings (−50mV, inward currents shown as upward deflections; the red dashed line indicates 0 currents) of various channels: WT, SUR1^K134A (the non-canonical PIP2 binding site mutation)/Kir6.2, SUR1/Kir6.2^R176A (the canonical PIP2 binding site mutation), and SUR1^K134A/Kir6.2^R176A double mutant, exposed alternately in 5 μM PIP2, 0.1 mM ATP, and 1 mM ATP as indicated by the bars above the recordings. The brief exposures to 0.1 mM and 1 mM ATP between PIP2 exposures were used to monitor the gradual decrease in ATP sensitivity as channel opening became increasingly stabilized by PIP2. b Group data of recordings shown in (a) comparing initial currents in K-INT at the time of patch excision. For each group, mean ± SEM of the data points are shown (WT, n = 12; SUR1^K134A, n = 6; Kir6.2^R176A, n = 7; SUR1^K134A/Kir6.2^R176A, n = 6 cells). Statistical significance was tested between mutants and WT or between double and single mutants using two-tailed unpaired t test with Welch’s correction, alpha = 0.05. *SUR1^K134A vs WT, p = 0.0468; ** Kir6.2^R176A vs WT, p = 0.0016; **SUR1^K134A/Kir6.2^R176A vs WT, p = 0.0014; ^#SUR1^K134A/Kir6.2^R176A vs SUR1^K134A, p = 0.0440; ^$SUR1^K134A/Kir6.2^R176A vs Kir6.2^R176A, p = 0.0411. Note the y-axis in this panel and panel (c) is in log scale for better visualization. c Comparison of the maximum fold-increase in currents after PIP2 exposure in different channels. For each group, mean ± SEM of the data points are shown (WT, n = 12; SUR1^K134A, n = 6; Kir6.2^R176A, n = 7; SUR1^K134A/Kir6.2^R176A, n = 5 cells). Statistical significance was tested between mutants and WT or between double and single mutants using two-tailed unpaired t test, alpha = 0.05. ***SUR1^K134A vs WT, p < 0.0001; ** Kir6.2^R176A vs WT, p = 0.0029; **SUR1^K134A/Kir6.2^R176A vs WT, p = 0.0012; ^#SUR1^K134A/Kir6.2^R176A vs SUR1^K134A, p = 0.0247; ^$SUR1^K134A/Kir6.2^R176A vs Kir6.2^R176A, p = 0.0353. d Comparison of the time of exposure in PIP2 for currents to reach maximum in different channels. For each group, mean ± SEM of the data points are shown (WT, n = 12; SUR1^K134A, n = 6; Kir6.2^R176A, n = 7; SUR1^K134A/Kir6.2^R176A, n = 6 cells). Statistical significance was tested between mutants and WT or between double and single mutants using two-tailed unpaired t test, alpha = 0.05. ***SUR1^K134A vs WT, p < 0.0001; ***Kir6.2^R176A vs WT, p = 0.0002; ***SUR1^K134A/Kir6.2^R176A vs WT, p < 0.0001; ^##SUR1^K134A/Kir6.2^R176A vs SUR1^K134A, p = 0.0071.
(§2) For electrophysiology experiments, COSm6 cells were co-transfected with various combination of WT or mutant SUR1 and Kir6.2 cDNAs (SUR1 in pECE and Kir6.2 in pCDNA3) along with the cDNA for the Green Fluorescent Protein (to facilitate identification of transfected cells) using FuGENE® 6 (Promega). Mutant SUR1 and Kir6.2 were constructed using QuikChange (mutagenesis primers are shown in Supplementary Table 2). Cells were plated onto glass coverslips 24 h after transfection and recordings made in the following two days. All experiments were performed at room temperature. Micropipettes were pulled from non-heparinized Kimble glass (Fisher Scientific) on a horizontal puller (Sutter Instrument). Electrode resistance was typically 1-2 MΩ when filled with K-INT solution containing 140 mM KCl, 10 mM K-HEPES, 1 mM K-EGTA, 1 mM EDTA, pH 7.3. ATP was added as the potassium salt. Inside-out patches of cells bathed in K-INT were voltage-clamped with an Axopatch 1D amplifier (Axon Instruments). ATP or porcine brain PIP2 (Avanti Polar Lipids; prepared in K-INT and bath sonicated in ice water for 30 min before use) were added to K-INT as specified in the figure legend. All currents were measured at a membrane potential of −50 mV (pipette voltage = +50 mV). Data were analyzed using pCLAMP10 software (Axon Instrument). Off-line analysis was performed using Clampfit and GraphPad. […]

[2] = target: T2, SUR1^K134A/Kir6.2 channel (UniProt P70673+Q09427, K134A); assay: as above; format: biochemical, rat Kir6.2, hamster SUR1; conditions: 5 μM PIP2; −50 mV; mean (± SEM)
T2 construct: expressed in transfected cells; host or cells: COSm6
T2 sequence (Q09427 whole entry K134A): as the sequence (Q09427 whole entry) above, with K134A counted along it
T2 sequence (P70673 whole entry): as the sequence (P70673 whole entry R176A) above, with A176R counted along it
Experimental: as §1, §2

[3] = target: T3, SUR1^K134A/Kir6.2^R176A double mutant channel (UniProt P70673+Q09427, K134A/R176A); assay: as above; format: biochemical, rat Kir6.2, hamster SUR1; conditions: 5 μM PIP2; −50 mV; mean (± SEM)
T3 construct: expressed in transfected cells; host or cells: COSm6
T3 sequence (Q09427 whole entry K134A): as the sequence (Q09427 whole entry) above, with K134A counted along it
T3 sequence (P70673 whole entry R176A): as the sequence (P70673 whole entry R176A) above
Experimental: as §1, §2

[4] = target: T4, WT (SUR1/Kir6.2) KATP channels (UniProt P70673+Q09427); assay: as above; format: biochemical, rat Kir6.2, hamster SUR1; conditions: 5 μM PIP2
T4 construct: expressed in transfected cells; host or cells: COSm6
T4 sequence (P70673 whole entry): as the sequence (P70673 whole entry R176A) above, with A176R counted along it
T4 sequence (Q09427 whole entry): as the sequence (Q09427 whole entry) above
Experimental: as §1, §2

His175 = His175 (UniProt position 175, KTAQAHRRAET); assay: electrophysiology; conditions: cited from earlier work
[5] = target: the molecule itself; assay: cryo-EM structure; SUR1/Kir6.2^Q52R channel co-expressed in COSm6 cells; membranes enriched with brain PIP2 (1 mg/mL) before solubilisation in digitonin; purified via the N-terminal FLAG tag on SUR1; 0.2 M NaCl, 0.1 M KCl, 0.05 M HEPES pH 7.5, 0.05% digitonin; no ATP or ADP added; graphene oxide-coated grids

PI(3,4)P2
activation of KATP channels (KATP channels): activated equally well

PI(4)P
activation of KATP channels (KATP channels): activated

CCCCCCCC(=O)OC[C@H](COP(=O)(O)O[C@@H]1[C@H](O)[C@H](O)[C@@H](OP(=O)(O)O)[C@H](OP(=O)(O)O)[C@H]1O)OC(=O)CCCCCCC [diC8-PIP2, diC8-PI(4,5)P2]
reversibility of channel activation (KATP channels; synthetic short-chain PIP2): readily reversible

PI(4,5)P2 [PIP2]
maximum fold-increase in currents after PIP2 exposure [1]: 48.74 ± 18.25 fold and 48.74 fold
time of exposure in PIP2 for currents to reach maximum [1]: 298.57 ± 73.76 s and 298.57 s
maximum fold-increase in currents after PIP2 exposure [2]: 3.96 ± 0.47 fold and 3.96 fold
time of exposure in PIP2 for currents to reach maximum [2]: 193.83 ± 33.66 s and 193.83 s
maximum fold-increase in currents after PIP2 exposure [3]: 299.65 ± 121.72 fold and 299.65 fold
time of exposure in PIP2 for currents to reach maximum [3]: 419.33 ± 57.86 s and 419.33 s
PIP2 exposure until currents plateaued [4]: ≤ 1 min
maximum fold-increase in currents after PIP2 exposure ([4]; −50 mV, mean (± SEM)): 1.45 fold
time of exposure in PIP2 for currents to reach maximum ([4]; −50 mV, mean (± SEM)): 33.17 ± 3.18 s and 33.17 s
activation of KATP channels (KATP channels): activated equally well

PI(3,4,5)P3
activation of KATP channels (KATP channels): activated equally well

ATP-sensitive inward rectifier potassium channel Kir6.2 (pore subunit of the KATP channel) (not stated for the quoted measurement (this article's own constructs are rat Kir6.2, Rattus norvegicus, with hamster SUR1))
pKa (His175): 7.16

B1: rat Kir6.2^Q52R (natural protein)
chain: MLSRKGIIPEEYVLTRLAEDPTEPRYRTRERRARFVSKKGNCNVAHKNIRERGRFLQDVFTTLVDLKWPHTLLIFTMSFLCSWLLFAMVWWLIAFAHGDLAPGEGTNVPCVTSIHSFSSAFLFSIEVQVTIGFGGRMVTEECPLAILILIVQNIVGLMINAIMLGCIFMKTAQAHRRAETLIFSKHAVITLRHGRLCFMLRVGDLRKSMIISATIHMQVVRKTTSPEGEVVPLHQVDIPMENGVGGNSIFLVAPLIIYHVIDSNSPLYDLAPSDLHHHQDLEIIVILEGVVETTGITTQARTSYLADEILWGQRFVPIVAEEDGRYSVDYSKFGNTVKVPTPLCTARQLDEDRSLLDALTLASSRGPLRKRSVAVAKAKPKFSISPDSLS
notes: Kir6.2, rat, with the neonatal diabetes mutation Q52R; the models hold residues 32-352 (N-terminal 31 residues and the tail beyond 352 not resolved); Four Kir6.2 subunits form the pore of the channel with four SUR1 subunits; the gene was cloned into pShuttle/AdEasy; PDB 6BAA (WT channel) was the starting model; also called Kir6.2 (pore-forming subunit of the SUR1/Kir6.2^Q52R KATP channel); …
stoichiometry N [5]: 4
